How the values were obtained:
[1] = for viscosity / mass density: 101.33 kPa, Liquid; for viscosity: Falling or rolling sphere viscometry; for mass density: Vibrating tube method
[2] = activity coefficient (dimensionless); of the first substance listed, at infinite dilution; xn = mol fraction of the nth substance listed; conditions: 101 kPa, Liquid, Chromatography, x1 = 0

C[N+]1(CCCO)CCOCC1.O=S(=O)([N-]S(=O)(=O)C(F)(F)F)C(F)(F)F
[1]
Conditions	mass density [kg/m3]	viscosity [mPa·s]
298.15 K	1536.09	1183
308.15 K	1527.32	565.7
318.15 K	1518.74	280.7
328.15 K	1510.14	156.1
338.15 K	1501.59	94.49
348.15 K	1493.08	61.14
358.15 K	1484.63	37.79
368.15 K	1476.24	27.09

[1], DTA
Conditions	Glass transition temperature [°C]	Normal melting temperature [°C]
Crystal	–	14
Glass	-52.5	–

CCOC(C)(C)C [2-ethoxy-2-methylpropane] + C[N+]1(CCCO)CCOCC1.O=S(=O)([N-]S(=O)(=O)C(F)(F)F)C(F)(F)F
[2]
Conditions	activity coefficient
318.15 K	16.1
328.15 K	15.8
338.15 K	15.6
348.15 K	15.2
358.15 K	15
368.15 K	14.8

CCCC(C)=O [pentan-2-one] + C[N+]1(CCCO)CCOCC1.O=S(=O)([N-]S(=O)(=O)C(F)(F)F)C(F)(F)F
[2]
Conditions	activity coefficient
318.15 K	1.24
328.15 K	1.29
338.15 K	1.34
348.15 K	1.4
358.15 K	1.44
368.15 K	1.48

CC(C)OC(C)C [diisopropyl ether] + C[N+]1(CCCO)CCOCC1.O=S(=O)([N-]S(=O)(=O)C(F)(F)F)C(F)(F)F
[2]
Conditions	activity coefficient
318.15 K	17.3
328.15 K	17.1
338.15 K	16.9
348.15 K	16.7
358.15 K	16.5
368.15 K	16.3

CCC(=O)CC [pentan-3-one] + C[N+]1(CCCO)CCOCC1.O=S(=O)([N-]S(=O)(=O)C(F)(F)F)C(F)(F)F
[2]
Conditions	activity coefficient
318.15 K	1.28
328.15 K	1.33
338.15 K	1.4
348.15 K	1.45
358.15 K	1.52
368.15 K	1.57

C=C(C)c1ccccc1 [(1-methylethenyl)benzene] + C[N+]1(CCCO)CCOCC1.O=S(=O)([N-]S(=O)(=O)C(F)(F)F)C(F)(F)F
[2]
Conditions	activity coefficient
318.15 K	5.97
328.15 K	6.12
338.15 K	6.28
348.15 K	6.41
358.15 K	6.55
368.15 K	6.65

C=CCCC [1-pentene] + C[N+]1(CCCO)CCOCC1.O=S(=O)([N-]S(=O)(=O)C(F)(F)F)C(F)(F)F
[2]
Conditions	activity coefficient
298.15 K	64.5
308.15 K	49.4
318.15 K	38.3
328.15 K	30.6

CCCO [propan-1-ol] + C[N+]1(CCCO)CCOCC1.O=S(=O)([N-]S(=O)(=O)C(F)(F)F)C(F)(F)F
[2]
Conditions	activity coefficient
318.15 K	2.06
328.15 K	2.01
338.15 K	1.96
348.15 K	1.92
358.15 K	1.88
368.15 K	1.84

C=CCCCC [hex-1-ene] + C[N+]1(CCCO)CCOCC1.O=S(=O)([N-]S(=O)(=O)C(F)(F)F)C(F)(F)F
[2]
Conditions	activity coefficient
318.15 K	58.2
328.15 K	51.7
338.15 K	45.2
348.15 K	40.5
358.15 K	35.9

C1COCCO1 [1,4-dioxane] + C[N+]1(CCCO)CCOCC1.O=S(=O)([N-]S(=O)(=O)C(F)(F)F)C(F)(F)F
[2]
Conditions	activity coefficient
318.15 K	0.6
328.15 K	0.653
338.15 K	0.709
348.15 K	0.758
358.15 K	0.811
368.15 K	0.859

CCCCCCCCCC [decane] + C[N+]1(CCCO)CCOCC1.O=S(=O)([N-]S(=O)(=O)C(F)(F)F)C(F)(F)F
[2]
Conditions	activity coefficient
318.15 K	624
328.15 K	543
338.15 K	479
348.15 K	419
358.15 K	363
368.15 K	328

C1CCCC1 [cyclopentane] + C[N+]1(CCCO)CCOCC1.O=S(=O)([N-]S(=O)(=O)C(F)(F)F)C(F)(F)F
[2]
Conditions	activity coefficient
318.15 K	41
328.15 K	34.7
338.15 K	30.6
348.15 K	27.2
358.15 K	23.5
368.15 K	21.4

CCCOCCC [dipropyl ether] + C[N+]1(CCCO)CCOCC1.O=S(=O)([N-]S(=O)(=O)C(F)(F)F)C(F)(F)F
[2]
Conditions	activity coefficient
318.15 K	20.1
328.15 K	19.5
338.15 K	18.9
348.15 K	18.4
358.15 K	17.9
368.15 K	17.4

c1ccsc1 [thiophene] + C[N+]1(CCCO)CCOCC1.O=S(=O)([N-]S(=O)(=O)C(F)(F)F)C(F)(F)F
[2]
Conditions	activity coefficient
318.15 K	1.89
328.15 K	1.92
338.15 K	1.95
348.15 K	1.98
358.15 K	2
368.15 K	2.03

C#CCCCCCC [1-octyne] + C[N+]1(CCCO)CCOCC1.O=S(=O)([N-]S(=O)(=O)C(F)(F)F)C(F)(F)F
[2]
Conditions	activity coefficient
318.15 K	33
328.15 K	31.3
338.15 K	29.6
348.15 K	28
358.15 K	26.7
368.15 K	25.5

c1ccncc1 [pyridine] + C[N+]1(CCCO)CCOCC1.O=S(=O)([N-]S(=O)(=O)C(F)(F)F)C(F)(F)F
[2]
Conditions	activity coefficient
318.15 K	0.414
328.15 K	0.461
338.15 K	0.501
348.15 K	0.55
358.15 K	0.593
368.15 K	0.639

CCC(C)O (stereo unspecified) [butan-2-ol] + C[N+]1(CCCO)CCOCC1.O=S(=O)([N-]S(=O)(=O)C(F)(F)F)C(F)(F)F
[2]
Conditions	activity coefficient
318.15 K	2.59
328.15 K	2.52
338.15 K	2.46
348.15 K	2.4
358.15 K	2.34
368.15 K	2.29

C1CCCCC1 [cyclohexane] + C[N+]1(CCCO)CCOCC1.O=S(=O)([N-]S(=O)(=O)C(F)(F)F)C(F)(F)F
[2]
Conditions	activity coefficient
318.15 K	66
328.15 K	55.7
338.15 K	48.3
348.15 K	42.2
358.15 K	36.3
368.15 K	32.2

Cc1ccc(C)cc1 [1,4-dimethylbenzene] + C[N+]1(CCCO)CCOCC1.O=S(=O)([N-]S(=O)(=O)C(F)(F)F)C(F)(F)F
[2]
Conditions	activity coefficient
318.15 K	6.65
328.15 K	6.7
338.15 K	6.74
348.15 K	6.78
358.15 K	6.79
368.15 K	6.84

C1=CCCCC1 [cyclohexene] + C[N+]1(CCCO)CCOCC1.O=S(=O)([N-]S(=O)(=O)C(F)(F)F)C(F)(F)F
[2]
Conditions	activity coefficient
318.15 K	23.7
328.15 K	21.6
338.15 K	20.2
348.15 K	18.6
358.15 K	17.1
368.15 K	16.2

CCOCC [diethyl ether] + C[N+]1(CCCO)CCOCC1.O=S(=O)([N-]S(=O)(=O)C(F)(F)F)C(F)(F)F
[2]
Conditions	activity coefficient
318.15 K	4.94
328.15 K	5
338.15 K	5.05
348.15 K	5.1
358.15 K	5.14
368.15 K	5.19

CC(C)O [propan-2-ol] + C[N+]1(CCCO)CCOCC1.O=S(=O)([N-]S(=O)(=O)C(F)(F)F)C(F)(F)F
[2]
Conditions	activity coefficient
318.15 K	1.83
328.15 K	1.78
338.15 K	1.74
348.15 K	1.71
358.15 K	1.67
368.15 K	1.64

Source: the NIST ThermoML archive (doi:10.1016/j.jct.2015.02.024)
